Results from the NIST ThermoML archive (doi:10.1021/je600573w).

Columns and labels:
[1] = 101.33 kPa, Liquid, Vibrating tube method
[2] = molar heat capacity at constant pressure; details: 101.33 kPa, Liquid, Small sample (50 mg) DSC

Clc1cccc(Br)c1 [1-bromo-3-chlorobenzene]
Details | mass density [kg/m3] | molar heat capacity at constant pressure [J/K/mol]
[1], 288.15 K | 1638.44 | –
[1], 298.15 K | 1624.97 | –
[1], 308.15 K | 1611.51 | –
[1], 318.15 K | 1598.05 | –
[1], 328.15 K | 1584.56 | –
[1], 338.15 K | 1571.05 | –
[2], 283.15 K | – | 171.14
[2], 285.15 K | – | 171.49
[2], 287.15 K | – | 171.84
[2], 289.15 K | – | 172.21
[2], 291.15 K | – | 172.59
[2], 293.15 K | – | 172.97
[2], 295.15 K | – | 173.36
[2], 297.15 K | – | 173.75
[2], 299.15 K | – | 174.15
[2], 301.15 K | – | 174.56
[2], 303.15 K | – | 174.98
[2], 305.15 K | – | 175.4
[2], 307.15 K | – | 175.82
[2], 309.15 K | – | 176.25
[2], 311.15 K | – | 176.68
[2], 313.15 K | – | 177.12
[2], 315.15 K | – | 177.56
[2], 317.15 K | – | 178
[2], 319.15 K | – | 178.44
[2], 321.15 K | – | 178.89
[2], 323.15 K | – | 179.33
[2], 325.15 K | – | 179.78
[2], 327.15 K | – | 180.23
[2], 329.15 K | – | 180.68
[2], 331.15 K | – | 181.13
[2], 333.15 K | – | 181.58
[2], 335.15 K | – | 182.03
[2], 337.15 K | – | 182.47
[2], 339.15 K | – | 182.92
[2], 341.15 K | – | 183.36
[2], 343.15 K | – | 183.8
[2], 345.15 K | – | 184.24
[2], 347.15 K | – | 184.67
[2], 349.15 K | – | 185.1
[2], 351.15 K | – | 185.52
[2], 353.15 K | – | 185.94

Clc1ccc(Cl)c(Cl)c1 [1,2,4-trichlorobenzene]
Details | mass density [kg/m3] | molar heat capacity at constant pressure [J/K/mol]
[1], 288.15 K | 1460.65 | –
[1], 298.15 K | 1448.67 | –
[1], 308.15 K | 1436.73 | –
[1], 318.15 K | 1424.8 | –
[1], 328.15 K | 1412.89 | –
[1], 338.15 K | 1400.98 | –
[2], 293.15 K | – | 194.25
[2], 295.15 K | – | 194.57
[2], 297.15 K | – | 194.9
[2], 299.15 K | – | 195.23
[2], 301.15 K | – | 195.57
[2], 303.15 K | – | 195.92
[2], 305.15 K | – | 196.27
[2], 307.15 K | – | 196.63
[2], 309.15 K | – | 196.99
[2], 311.15 K | – | 197.35
[2], 313.15 K | – | 197.72
[2], 315.15 K | – | 198.09
[2], 317.15 K | – | 198.47
[2], 319.15 K | – | 198.85
[2], 321.15 K | – | 199.23
[2], 323.15 K | – | 199.61
[2], 325.15 K | – | 200
[2], 327.15 K | – | 200.38
[2], 329.15 K | – | 200.77
[2], 331.15 K | – | 201.16
[2], 333.15 K | – | 201.55
[2], 335.15 K | – | 201.93
[2], 337.15 K | – | 202.32
[2], 339.15 K | – | 202.71
[2], 341.15 K | – | 203.09
[2], 343.15 K | – | 203.47
[2], 345.15 K | – | 203.85
[2], 347.15 K | – | 204.23
[2], 349.15 K | – | 204.61
[2], 351.15 K | – | 204.98
[2], 353.15 K | – | 205.35

Clc1ccc(Cl)cc1 [1,4-dichlorobenzene]
[2]
Details | molar heat capacity at constant pressure [J/K/mol]
327.15 K | 177.09
329.15 K | 177.53
331.15 K | 177.98
333.15 K | 178.43
335.15 K | 178.89
337.15 K | 179.35
339.15 K | 179.81
341.15 K | 180.28
343.15 K | 180.76
345.15 K | 181.24
347.15 K | 181.73
349.15 K | 182.22
351.15 K | 182.71
353.15 K | 183.21

Brc1ccccc1 [bromobenzene]
Details | mass density [kg/m3] | molar heat capacity at constant pressure [J/K/mol]
[1], 288.15 K | 1501.95 | –
[1], 298.15 K | 1488.45 | –
[1], 308.15 K | 1474.94 | –
[1], 318.15 K | 1461.39 | –
[1], 328.15 K | 1447.8 | –
[1], 338.15 K | 1434.15 | –
[2], 283.15 K | – | 151.63
[2], 285.15 K | – | 151.99
[2], 287.15 K | – | 152.37
[2], 289.15 K | – | 152.75
[2], 291.15 K | – | 153.14
[2], 293.15 K | – | 153.54
[2], 295.15 K | – | 153.94
[2], 297.15 K | – | 154.35
[2], 299.15 K | – | 154.77
[2], 301.15 K | – | 155.19
[2], 303.15 K | – | 155.62
[2], 305.15 K | – | 156.05
[2], 307.15 K | – | 156.49
[2], 309.15 K | – | 156.93
[2], 311.15 K | – | 157.38
[2], 313.15 K | – | 157.83
[2], 315.15 K | – | 158.28
[2], 317.15 K | – | 158.74
[2], 319.15 K | – | 159.2
[2], 321.15 K | – | 159.66
[2], 323.15 K | – | 160.13
[2], 325.15 K | – | 160.6
[2], 327.15 K | – | 161.06
[2], 329.15 K | – | 161.53
[2], 331.15 K | – | 162
[2], 333.15 K | – | 162.48
[2], 335.15 K | – | 162.95
[2], 337.15 K | – | 163.42
[2], 339.15 K | – | 163.89
[2], 341.15 K | – | 164.36
[2], 343.15 K | – | 164.83
[2], 345.15 K | – | 165.3
[2], 347.15 K | – | 165.76
[2], 349.15 K | – | 166.23
[2], 351.15 K | – | 166.69
[2], 353.15 K | – | 167.15

Clc1ccc(Cl)c(Cl)c1Cl [1,2,3,4-tetrachlorobenzene]
[2]
Details | molar heat capacity at constant pressure [J/K/mol]
327.15 K | 225.17
329.15 K | 225.49
331.15 K | 225.82
333.15 K | 226.14
335.15 K | 226.47
337.15 K | 226.8
339.15 K | 227.13
341.15 K | 227.46
343.15 K | 227.8
345.15 K | 228.13
347.15 K | 228.47
349.15 K | 228.81
351.15 K | 229.16
353.15 K | 229.5
